Holding throughout (assay type): functional
For test [1], the system named is Saccharomyces cerevisiae. In words: Antimicrobial activity against Saccharomyces cerevisiae containing disruption in IFA38 gene by broth microdilution method. On the technique in general: Dilution methods test growth across graded concentrations, often in twofold steps.
Test [2] deals with Saccharomyces cerevisiae. In words: Antimicrobial activity against Saccharomyces cerevisiae containing disruption in RAD18 gene by broth microdilution method.
The test system of test [3] is Saccharomyces cerevisiae. In words: Antimicrobial activity against Saccharomyces cerevisiae containing disruption in […] gene by broth microdilution method.
For test [4], the system named is Saccharomyces cerevisiae. In words: Antimicrobial activity against Saccharomyces cerevisiae containing disruption in YOR345C gene by broth microdilution method.
The subject of test [5] is Saccharomyces cerevisiae. In words: Antimicrobial activity against wild type Saccharomyces cerevisiae BY4741 by broth microdilution method.
For test [6], the system named is Saccharomyces cerevisiae. In words: Antimicrobial activity against Saccharomyces cerevisiae containing disruption in YLR456W gene by broth microdilution method.
For test [7], the system named is Saccharomyces cerevisiae. In words: Antimicrobial activity against Saccharomyces cerevisiae containing disruption in CYS3 gene by broth microdilution method.
The test system of test [8] is Saccharomyces cerevisiae. In words: Antimicrobial activity against Saccharomyces cerevisiae containing disruption in MEF2 gene by broth microdilution method.
For test [9], the system named is Saccharomyces cerevisiae. In words: Antimicrobial activity against Saccharomyces cerevisiae containing disruption in APL2 gene by broth microdilution method.
In test [10] the test system is Saccharomyces cerevisiae. In words: Antimicrobial activity against Saccharomyces cerevisiae containing disruption in YGL072C gene by broth microdilution method.
Test [11] relates to Saccharomyces cerevisiae. In words: Antimicrobial activity against Saccharomyces cerevisiae containing disruption in YGL235W gene by broth microdilution method.
In test [12] the test system is Saccharomyces cerevisiae. In words: Antimicrobial activity against Saccharomyces cerevisiae containing disruption in SNF1 gene by broth microdilution method.
In test [13] the test system is Saccharomyces cerevisiae. In words: Antimicrobial activity against Saccharomyces cerevisiae containing disruption in RTG2 gene by broth microdilution method.
Test [14] relates to Saccharomyces cerevisiae. In words: Antimicrobial activity against Saccharomyces cerevisiae containing disruption in YKL037W gene by broth microdilution method.

SMILES strings stand for the structures. In brackets after ≈: the same amount, converted by molar mass.

In the case of `C[C@@H]1[C@H](O)[C@@H](C)/C=C/C=C/C=C/C=C/C=C/C=C/C=C/[C@H](O[C@@H]2O[C@H](C)[C@@H](O)[C@H](N)[C@@H]2O)C[C@@H]2O[C@](O)(C[C@@H](O)C[C@@H](O)[C@H](O)CC[C@@H](O)C[C@@H](O)CC(=O)O[C@H]1C)C[C@H](O)[C@H]2C(=O)O` [AMPHOTERICIN B], the MIC – broadly, the least concentration at which growth counts as inhibited – in test [1] is 0.5 µg/mL (≈ 0.541 µM); in [2] it was 0.5 µg/mL (≈ 0.541 µM); in [3], 0.5 µg/mL (≈ 0.541 µM); in test [4] it was 0.5 µg/mL (≈ 0.541 µM); in test [5] it was 0.125 µg/mL (≈ 0.135 µM); in test [6] it was 0.5 µg/mL (≈ 0.541 µM). For the same compound, the MIC in test [7] was determined as 0.25 µg/mL (≈ 0.271 µM); in test [8], 0.25 µg/mL (≈ 0.271 µM); in test [9], 0.5 µg/mL (≈ 0.541 µM); in test [10], 0.5 µg/mL (≈ 0.541 µM); in test [11], 0.5 µg/mL (≈ 0.541 µM); in test [12], 0.5 µg/mL (≈ 0.541 µM). In addition, the MIC in test [13] is 0.5 µg/mL (≈ 0.541 µM); in [14], 0.25 µg/mL (≈ 0.271 µM).
On to `CN1C(=O)[C@]23CC4=CC=C[C@H](O)[C@H]4N2C(=O)[C@@]1(CO)SS3` [GLIOTOXIN], for which the minimum inhibitory concentration (MIC) was determined as 2 µg/mL (≈ 6.13 µM) in [1]; 8 µg/mL (≈ 24.5 µM) in [2]; 2 µg/mL (≈ 6.13 µM) in test [3]; 16 µg/mL (≈ 49 µM) in test [4]; 0.5 µg/mL (≈ 1.53 µM) in test [5]; 8 µg/mL (≈ 24.5 µM) in [6]. In addition, the MIC in [7] was 0.06 µg/mL (≈ 0.184 µM); in test [8], 0.06 µg/mL (≈ 0.184 µM); in test [9], 8 µg/mL (≈ 24.5 µM); in test [10], 16 µg/mL (≈ 49 µM); in test [11] it was 8 µg/mL (≈ 24.5 µM); in [12], 8 µg/mL (≈ 24.5 µM). Also, the MIC turned out to be 8 µg/mL (≈ 24.5 µM) in test [13] and 0.125 µg/mL (≈ 0.383 µM) in test [14].
Take `OC(Cn1cncn1)(Cn1cncn1)c1ccc(F)cc1F` [FLUCONAZOLE]: the MIC in test [1] was found to be 16 µg/mL (≈ 52.2 µM); in test [2], 16 µg/mL (≈ 52.2 µM); in [3], 16 µg/mL (≈ 52.2 µM); in [4], 16 µg/mL (≈ 52.2 µM); in test [5], 32 µg/mL (≈ 104 µM); in test [6] it was 16 µg/mL (≈ 52.2 µM). For the same compound, the minimum inhibitory concentration (MIC) was determined as 32 µg/mL (≈ 104 µM) in test [7]; 32 µg/mL (≈ 104 µM) in test [8]; 16 µg/mL (≈ 52.2 µM) in [9]; 16 µg/mL (≈ 52.2 µM) in test [10]; 16 µg/mL (≈ 52.2 µM) in test [11]; 16 µg/mL (≈ 52.2 µM) in [12]. Also, the MIC in test [13] worked out at 16 µg/mL (≈ 52.2 µM); in test [14] it was 32 µg/mL (≈ 104 µM).
Regarding `CC[C@H](C)C[C@H](C)CCCCCCCCC(=O)N[C@H]1C[C@@H](O)[C@@H](NCCN)NC(=O)[C@@H]2[C@@H](O)CCN2C(=O)[C@H]([C@H](O)CCN)NC(=O)[C@H]([C@H](O)[C@@H](O)c2ccc(O)cc2)NC(=O)[C@@H]2C[C@@H](O)CN2C(=O)[C@H]([C@@H](C)O)NC1=O` [CASPOFUNGIN], the minimal inhibitory concentration (MIC) in test [1], in [2], in [3], in [4], in test [5] and in test [6] was 0.007 µg/mL (≈ 0.0064 µM) throughout. The MIC in [7] was 0.028 µg/mL (≈ 0.0256 µM); in [8] it was 0.028 µg/mL (≈ 0.0256 µM); in [9] it was 0.007 µg/mL (≈ 0.0064 µM); in test [10], 0.007 µg/mL (≈ 0.0064 µM); in [11], 0.007 µg/mL (≈ 0.0064 µM); in test [12], 0.007 µg/mL (≈ 0.0064 µM). Besides, the minimum inhibitory concentration (MIC) in test [13] came to 0.007 µg/mL (≈ 0.0064 µM); in test [14], 0.028 µg/mL (≈ 0.0256 µM).
Turning to `C[C@@H]1C[C@@H]([C@H](O)CC2CC(=O)NC(=O)C2)C(=O)[C@@H](C)C1` [CYCLOHEXIMIDE], the MIC in [1], in test [2], in test [3], in [4], in test [5] and in test [6] was 0.025 µg/mL (≈ 0.0889 µM) each time. For the same compound, the MIC in [7], in test [8], in test [9], in [10], in test [11] and in test [12] was 0.025 µg/mL (≈ 0.0889 µM) each time. Besides, the MIC in [13] and in [14] was 0.025 µg/mL (≈ 0.0889 µM) each time.

(Values after ChEMBL document CHEMBL1255297, “Genomewide screening for genes associated with gliotoxin resistance and sensitivity in Saccharomyces cerevisiae” (2008).)
